Test results from US9815839B2, “N-(1-(substituted-phenyl)ethyl)-9H-purin-6-amines as PI3K inhibitors” (Incyte Corporation, priority 2010, dated 2017).
Where a name gives a salt, the structure may show the parent alone.

Assays:
[1] = test system: Pfeiffer cell line (diffuse large B cell lymphoma); assay: Pfeiffer cell proliferation assay; format: cell-based; settings: Homo sapiens, Pfeiffer, Pfeiffer cells, 3-4 days plus 12 hours [3H]-thymidine incorporation
Method in brief: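 Pfeiffer DLBCL cells grown in RPMI/10% FBS at 2×10^3 cells/well in ultra-low-binding plates with a range of compound concentrations for 3-4 days. [3H]-thymidine (1 μCi/well) was then added for 12 h more. Incorporation was read by filtration and scintillation counting.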

PI3Kδ (p110δ/p85α) = biological target: T1, PI3Kδ (p110δ/p85α) (Homo sapiens, UniProt O00329); assay: PI3Kδ scintillation proximity assay; format: biochemical; settings: 20 μM ATP, 4 nM PI3Kδ
T1 construct: purchased Millipore (Bedford, Mass.)
T1 sequence (O00329 whole entry, species assumed): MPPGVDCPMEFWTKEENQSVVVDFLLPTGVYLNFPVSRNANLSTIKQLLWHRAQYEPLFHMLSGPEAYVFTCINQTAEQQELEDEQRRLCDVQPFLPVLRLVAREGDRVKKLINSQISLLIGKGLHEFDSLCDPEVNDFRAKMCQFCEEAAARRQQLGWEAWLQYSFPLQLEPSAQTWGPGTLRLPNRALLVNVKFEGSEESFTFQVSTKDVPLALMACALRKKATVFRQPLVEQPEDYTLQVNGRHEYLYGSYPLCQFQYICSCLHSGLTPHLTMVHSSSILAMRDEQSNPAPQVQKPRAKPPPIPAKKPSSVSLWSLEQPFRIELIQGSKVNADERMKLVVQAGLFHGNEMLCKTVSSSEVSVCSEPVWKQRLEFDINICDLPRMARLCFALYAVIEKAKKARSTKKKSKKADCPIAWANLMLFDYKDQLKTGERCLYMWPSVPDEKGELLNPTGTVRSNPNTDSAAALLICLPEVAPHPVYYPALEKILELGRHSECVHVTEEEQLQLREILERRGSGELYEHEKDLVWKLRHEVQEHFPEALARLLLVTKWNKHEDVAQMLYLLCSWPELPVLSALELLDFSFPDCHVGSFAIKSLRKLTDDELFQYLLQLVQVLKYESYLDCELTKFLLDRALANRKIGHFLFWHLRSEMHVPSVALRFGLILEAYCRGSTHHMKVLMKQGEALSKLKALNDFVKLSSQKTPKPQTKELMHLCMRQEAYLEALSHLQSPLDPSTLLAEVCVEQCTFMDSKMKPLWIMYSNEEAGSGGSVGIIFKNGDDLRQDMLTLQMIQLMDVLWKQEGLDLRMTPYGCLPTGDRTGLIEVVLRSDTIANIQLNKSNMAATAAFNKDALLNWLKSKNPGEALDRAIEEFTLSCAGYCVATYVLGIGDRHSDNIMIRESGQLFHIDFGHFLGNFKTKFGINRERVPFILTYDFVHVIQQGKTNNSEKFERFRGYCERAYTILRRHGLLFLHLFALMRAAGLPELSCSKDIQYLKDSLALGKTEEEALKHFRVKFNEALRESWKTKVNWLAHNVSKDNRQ
T1 sequence (P27986 whole entry partner, species assumed): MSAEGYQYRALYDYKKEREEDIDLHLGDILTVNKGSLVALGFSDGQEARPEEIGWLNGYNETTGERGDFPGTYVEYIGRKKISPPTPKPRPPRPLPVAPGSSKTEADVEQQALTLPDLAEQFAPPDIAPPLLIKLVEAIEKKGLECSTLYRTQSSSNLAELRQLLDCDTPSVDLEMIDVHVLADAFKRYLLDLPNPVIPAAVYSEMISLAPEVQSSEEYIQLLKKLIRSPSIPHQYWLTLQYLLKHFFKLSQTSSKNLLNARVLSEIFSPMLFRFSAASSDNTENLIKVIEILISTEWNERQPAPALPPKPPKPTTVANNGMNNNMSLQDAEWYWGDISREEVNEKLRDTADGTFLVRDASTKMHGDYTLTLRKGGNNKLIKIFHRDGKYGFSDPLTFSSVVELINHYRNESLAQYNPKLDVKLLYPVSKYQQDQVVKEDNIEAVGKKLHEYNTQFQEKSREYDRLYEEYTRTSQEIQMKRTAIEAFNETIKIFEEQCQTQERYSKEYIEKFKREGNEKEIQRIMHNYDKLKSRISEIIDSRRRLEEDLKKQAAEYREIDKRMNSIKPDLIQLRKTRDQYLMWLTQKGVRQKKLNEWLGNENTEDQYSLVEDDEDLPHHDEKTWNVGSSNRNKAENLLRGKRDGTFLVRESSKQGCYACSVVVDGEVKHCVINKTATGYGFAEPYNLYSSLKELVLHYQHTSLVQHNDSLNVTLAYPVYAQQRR
Method in brief: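 p110δ/p85α (4 nM) phosphorylated 20 μM PIP2 with 20 μM ATP plus [γ-33P]ATP in 20 mM MOPS pH 6.7, 10 mM MgCl2, 5 mM DTT, 0.03% CHAPS, 0.5% DMSO, 210 min at room temperature. EDTA quench, WGA SPA bead capture, scintillation counting; IC50 from log-concentration fit.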

Row | IC50 [1] [nM] | IC50 (PI3Kδ (p110δ/p85α)) [nM] | SMILES
1 | < 100 | < 50 | COc1c(C(C)Nc2ncnc3[nH]cnc23)cc(Cl)c(C)c1-c1cncc(C(=O)N2CCOCC2)c1 (stereo not shown) [Example 111, N-(1-{5-chloro-2-methoxy-4-methyl-3-[5-(morpholin-4-ylcarbonyl)pyridin-3-yl]phenyl}ethyl)-9H-purin-6-amine]
2 | < 100 | < 50 | CC(Nc1ncnc2[nH]cnc12)c1cc(Cl)cc(-c2cn[nH]c2)c1-c1cc(F)cc(F)c1 (stereo not shown) [Example 124, N-{1-[4-Chloro-3′,5′-difluoro-6-(1H-pyrazol-4-yl)biphenyl-2-yl]ethyl}-9H-purin-6-amine]
3 | < 100 | < 50 | COc1c(C(C)Nc2ncnc3[nH]cnc23)cc(Cl)c(C)c1C1CN(C(C)C)C1 (stereo not shown) [Example 170, N-{1-[5-Chloro-3-(1-isopropylazetidin-3-yl)-2-methoxy-4-methylphenyl]ethyl}-9H-purin-6-amine bis(trifluoroacetate)]
4 | < 100 | < 50 | COc1c(C(C)Nc2ncnc3[nH]cnc23)cc(Cl)c(C)c1-c1cccc(C(=O)N(C)C)n1 (stereo not shown) [Example 177, 6-{3-chloro-6-methoxy-2-methyl-5-[1-(9H-purin-6-ylamino)ethyl]phenyl}-N,N-dimethylpyridine-2-carboxamide bis(2,2,2-trifluoroacetate)]
5 | < 100 | < 50 | COc1c(C(C)Nc2ncnc3[nH]cnc23)cc(Cl)c(C)c1-c1cc(C(=O)N(C)C)cnn1 (stereo not shown) [Example 178, 6-{3-chloro-6-methoxy-2-methyl-5-[1-(9H-purin-6-ylamino)ethyl]phenyl}-N,N-dimethylpyridazine-4-carboxamide bis(2,2,2-trifluoroacetate)]
6 | < 100 | < 50 | CCOc1c(C(C)Nc2ncnc3[nH]cnc23)cc(Cl)c(C#N)c1-c1ccc(C(=O)N(C)C)nc1 (stereo not shown) [Example 179, 5-{3-chloro-2-cyano-6-ethoxy-5-[1-(9H-purin-6-ylamino)ethyl]phenyl}-N,N-dimethylpyridine-2-carboxamide bis(2,2,2-trifluoroacetate)]
7 | < 100 | < 50 | COc1c(C(C)Nc2ncnc3[nH]cnc23)cc(Cl)c(Cl)c1C1CN(C(C)=O)C1 (stereo not shown) [Example 195, N-{1-[3-(1-Acetylazetidin-3-yl)-4,5-dichloro-2-methoxyphenyl]ethyl}-9H-purin-6-amine]
8 | < 100 | < 50 | COc1c(C(C)Nc2ncnc3[nH]cnc23)cc(Cl)c(Cl)c1C1CN(C2CCOC2)C1 (stereo not shown) [Example 197, N-(1-{4,5-Dichloro-2-methoxy-3-[1-(tetrahydrofuran-3-yl)azetidin-3-yl]phenyl}ethyl)-9H-purin-6-amine bistrifluoroacetate]
9 | < 100 | < 50 | COc1c(C(C)Nc2ncnc3[nH]cnc23)cc(Cl)c(Cl)c1C1CN(C)C1 (stereo not shown) [Example 199, N-{1-[4,5-Dichloro-2-methoxy-3-(1-methylazetidin-3-yl)phenyl]ethyl}-9H-purin-6-amine]
10 | < 100 | < 50 | COc1c(C(C)Nc2ncnc3[nH]cnc23)cc(Cl)c(Cl)c1C1CN(CCCC(F)(F)F)C1 (stereo not shown) [Example 203, N-(1-{4,5-Dichloro-2-methoxy-3-[1-(4,4,4-trifluorobutyl)azetidin-3-yl]phenyl}ethyl)-9H-purin-6-amine]
11 | < 100 | < 50 | COc1c(C(C)Nc2ncnc3[nH]cnc23)cc(Cl)c(Cl)c1C1CN(Cc2cscn2)C1 (stereo not shown) [Example 204, N-(1-{4,5-Dichloro-2-methoxy-3-[1-(1,3-thiazol-4-ylmethyl)azetidin-3-yl]phenyl}ethyl)-9H-purin-6-amine]
12 | < 100 | < 50 | COc1c(C(C)Nc2ncnc3[nH]cnc23)cc(Cl)c(Cl)c1C1CN(C(C)CO)C1 (stereo not drawn) [Example 208, 2-(3-{2,3-Dichloro-6-methoxy-5-[1-(9H-purin-6-ylamino)ethyl]phenyl}azetidin-l-yl)propan-1-ol bistrifluoroacetate]
13 | 100 to 500 | < 50 | CCOc1c(C(C)Nc2ncnc3[nH]cnc23)cc(C#N)c(F)c1-c1cncc(S(C)(=O)=O)c1 (stereo not shown) [Example 212, 4-Ethoxy-2-fluoro-3-[5-(methylsulfonyl)pyridin-3-yl]-5-[1-(9H-purin-6-ylamino)ethyl]benzonitrile bis(trifluoroacetate)]

Continued, compound first:

Row | SMILES | IC50 [1] [nM] | IC50 (PI3Kδ (p110δ/p85α)) [nM]
14 | COc1c(C(C)Nc2ncnc3[nH]cnc23)cc(Cl)c(C)c1-c1cc(F)cc(C(N)=O)c1 (stereo not shown) [Example 110, 3′-chloro-5-fluoro-6′-methoxy-2′-methyl-5′-[1-(9H-purin-6-ylamino)ethyl]biphenyl-3-carboxamide] | 100 to 500 | < 50
15 | COc1c(C(C)Nc2ncnc3[nH]cnc23)cc(Cl)c(C)c1-c1ccc(NC(C)=O)nc1 (stereo not shown) [Example 112, N-(5-{3-chloro-6-methoxy-2-methyl-5-[1-(9H-purin-6-ylamino)ethyl]phenyl}-pyridin-2-yl)acetamide] | < 100 | < 50
16 | COc1c(C(C)Nc2ncnc3[nH]cnc23)cc(Cl)c(C)c1C1CN(C(C)=O)C1 (stereo not shown) [Example 166, N-{1-[3-(1-Acetylazetidin-3-yl)-5-chloro-2-methoxy-4-methylphenyl]ethyl}-9H-purin-6-amine trifluoroacetate] | < 100 | < 50
17 | COc1c(C(C)Nc2ncnc3[nH]cnc23)cc(Cl)c(C)c1-c1cnn(C2CCNCC2)c1 (stereo not shown) [Example 174, N-{1-[5-chloro-2-methoxy-4-methyl-3-(1-piperidin-4-yl-1H-pyrazol-4-yl)phenyl]ethyl}-9H-purin-6-amine tris(trifluoroacetate)] | < 100 | < 50
18 | COc1c(C(C)Nc2ncnc3[nH]cnc23)cc(Cl)c(C)c1C1CCN(C)CC1 (stereo not shown) [Example 176, N-{1-[5-Chloro-2-methoxy-4-methyl-3-(1-methylpiperidin-4-yl)phenyl]ethyl}-9H-purin-6-amine] | < 100 | < 50
19 | CCOc1c(C(C)Nc2ncnc3[nH]cnc23)cc(Cl)c(C#N)c1-c1ccc(C(C)O)nc1 (stereo not shown) [Example 180, 6-chloro-3-ethoxy-2-[6-(1-hydroxyethyl)pyridin-3-yl]-4-[1-(9H-purin-6-ylamino)ethyl]benzonitrile bis(2,2,2-trifluoroacetate)] | < 100 | < 50
20 | COc1c(C(C)Nc2ncnc3[nH]cnc23)cc(Cl)c(Cl)c1C1CN(C(C)C)C1 (stereo not shown) [Example 194, N-{1-[4,5-Dichloro-3-(1-isopropylazetidin-3-yl)-2-methoxyphenyl]ethyl}-9H-purin-6-amine bis(trifluoroacetate)] | < 100 | < 50
21 | COc1c(C(C)Nc2ncnc3[nH]cnc23)cc(Cl)c(Cl)c1C1CN(CCO)C1 (stereo not shown) [Example 196, 2-(3-{2,3-Dichloro-6-methoxy-5-[1-(9H-purin-6-ylamino)ethyl]phenyl}azetidin-1-yl)ethanol bis(trifluoroacetate)] | < 100 | < 50
22 | COCCN1CC(c2c(Cl)c(Cl)cc(C(C)Nc3ncnc4[nH]cnc34)c2OC)C1 (stereo not shown) [Example 200, N-(1-{4,5-Dichloro-2-methoxy-3-[1-(2-methoxyethyl)azetidin-3-yl]phenyl}ethyl)-9H-purin-6-amine] | < 100 | < 50
23 | COc1c(C(C)Nc2ncnc3[nH]cnc23)cc(Cl)c(Cl)c1C1CN(CC2CC2)C1 (stereo not shown) [Example 201, N-(1-{4,5-Dichloro-3-[1-(cyclopropylmethyl)azetidin-3-yl]-2-methoxyphenyl}ethyl)-9H-purin-6-amine] | < 100 | < 50
24 | COc1c(C(C)Nc2ncnc3[nH]cnc23)cc(Cl)c(Cl)c1C1CN(CC2CCOC2)C1 (stereo not shown) [Example 202, N-(1-{4,5-dichloro-2-methoxy-3-[1-(tetrahydrofuran-3-ylmethyl)azetidin-3-yl]phenyl}ethyl)-9H-purin-6-amine] | < 100 | < 50
25 | COc1c(C(C)Nc2ncnc3[nH]cnc23)cc(Cl)c(Cl)c1C1CN(CCC(F)(F)F)C1 (stereo not shown) [Example 205, N-(1-{4,5-Dichloro-2-methoxy-3-[1-(3,3,3-trifluoropropyl)azetidin-3-yl]phenyl}ethyl)-9H-purin-6-amine] | < 100 | < 50
26 | CCOc1c(C(C)Nc2ncnc3[nH]cnc23)cc(Cl)c(C#N)c1C1CN(CC)C1 (stereo not shown) [Example 213, 6-Chloro-3-ethoxy-2-(1-ethylazetidin-3-yl)-4-[1-(9H-purin-6-ylamino)ethyl]benzonitrile bis(trifluoroacetate)] | < 100 | < 50
